Where no end group is shown, it is not given here.
Experiments:
plasmid DNA (pRSETB) = assay: Binding between antimicrobial peptide and DNA (gel electrophoresis); conditions: peptide/DNA ratio 0.25:1 to 4:1, 10 minutes at 37° C.
Protocol: To figure out the working mechanism of the synthetic peptides of the present invention for showing the antimicrobial activity, electrophoresis was carried out to examine the possible binding of synthetic peptides, i.e., Hp1404, […], Hp1404-T1d and Hp1404-T1e, to DNA as an internal material of bacteria.
Specifically, after reacting the plasmid DNA (pRSETB, 260 ng) with the peptide at different ratio (i.e., peptide/DNA ratio is as follows for lane number 1 to lane number 8: DNA only, 0.25:1, 0.5:1, 1:1, 1.5:1, 2:1, 3:1, and 4:1. respectively) for 10 minutes at 37° C., they were subjected to electrophoresis using 1% agarose gel followed by ethidium bromide (EtBr) staining and UV visualization.

[1] = system: outer membrane of P. aeruginosa; assay: Outer membrane effect (NPN fluorescence); type: cell-based; conditions: peptide at 1×, 2× or 4×MIC
Protocol: By using the peptides prepared by the method of Example 1, effect of the peptide on the outer membrane and inner membrane of bacteria was examined. […] However, once the hydrophobic part is exposed as a result of damage occurring in cell wall, NPN emits fluorescence. After culturing each strain in TSB and NB medium, the strain was adjusted such that it has OD600 value of 0.2 in 5 mM HEPES buffer solution. After allowing the reaction to occur between 10 μM NPN dissolved in 95% ethanol and the bacteria by adding them in a 96-well black plate, the peptide at a concentration of 1×, 2× or 4×MIC and 0.1% Triton X-100 were further added, and then the fluorescence was measured.

S. aureus = assay: MIC, S. aureus; type: cell-based, Staphylococcus aureus; conditions: S. aureus (ATCC 25923), 18 hours at 37° C.
Source text: (§1) To compare the antimicrobial activity among the peptides produced by the method of Example 1, the inventors of the present invention measured the minimal growth inhibitory concentration (MIC), which is minimum concentration of the peptide showing no dissociation of bacterial cells.
(§2) Specifically, the bacterial strain described in the following Table 2 was purchased and cultured to a mid-log phase in each medium with a composition suitable for each strain. Then, after dilution to bacterial cell concentration of 2×10^4 cells/100 μl, the cells were inoculated to a microtiter plate (NUNC, USA). Thereafter, Hp1404-T1, Hp1404-T1a, Hp1404-T1b, Hp1404-T1c, Hp1404-T1d or Hp1404-T1e peptide which has been synthesized in Example 1 above was subjected to serial dilution, ½ times for each, with BSA (bovine serum albumin) solution in a 96-well plate. After adding the cells to a plate, the cells were cultured for 18 hours at 37° C. By using a microtiter plate reader (Merck Elisa reader, Germany), the absorbance was measured at a wavelength of 600 nm to determine the MIC value of each bacterial strain. As a control group, Hp1404 as a mother peptide was used.

L. monocytogenes = assay: MIC, L. monocytogenes; type: cell-based, Listeria monocytogenes; conditions: L. monocytogenes (KCTC 3710), 18 hours at 37° C.
Source text: as §1, §2

[2] = Cytotoxicity in normal cell line (MTT); type: cell-based; conditions: human, HaCaT keratinocytes, read-out: Cell survival ability; for viability at 24 h, 6.25 µM: peptide concentration 6.25 μM; for viability at 24 h, 12.5 µM: peptide concentration 12.5 μM; for viability at 24 h, 25 µM: peptide concentration 25 μM; for viability at 24 h, 50 µM: peptide concentration 50 μM; for viability at 24 h, 100 µM: peptide concentration 100 μM; for viability at 24 h, 200 µM: peptide concentration 200 μM, HaCaT
Protocol: To determine the cytotoxicity of the peptide produced by the method of Example 1 in normal cell line, toxicity was measured by using human keratinocytes (HaCaT cell line, Dr. N E. Fusenig, Heidelberg, Germany).
Specifically, HaCaT cells which have been cultured in DMEM medium containing 10% FBS (Fetal Bovine Serum) were aliquoted in a 96-well plate to have 2×10^5 cells per well. After culturing them for 24 hours, the cells were subjected to a treatment with Hp1404, Hp1404-T1, Hp1404-T1a, Hp1404-T1b, Hp1404-T1c, Hp1404-T1d, or Hp1404-T1e, each at concentration of 6.25, 12.5, 25.0, 50.0, 100.0 or 200.0 μM/well, followed by reaction for 24 hours in a 5% CO2 incubator. After 24 hours, a reaction solution containing 0.5 mg/ml MTT (Thiazolyl Blue Tetrazolium Bromide) dissolved in physiological saline (PBS) was added in an amount of 100 μl to each well and the reaction was allowed to occur for 4 hours. After that, the supernatant was removed, and, by dissolving MTT crystals that are formed by adding 200 μl of DMSO (dimethyl sulfoxide), the absorbance at 560 nm was measured to determine the cell survival ability.

[3] = system: Pseudomonas aeruginosa strain 1034; assay: In vivo antimicrobial activity, infected skin wound; parameters: species or system BALB/c mouse; number of colonies from skin tissues: reference not given here; conditions: intracutaneous
Protocol: By using Hp1404-T1e found to have the most excellent antimicrobial activity among the peptides that are prepared by the method of Example 1, in vivo antimicrobial activity was measured. Specifically, among the Pseudomonas aeruginosa strains, strain 1034 was selected and tested. The strain was prepared by washing 3 times with PBS buffer. Ciprofloxacin antibiotic was used as a control group. A BALB/c mouse (6 week old) was shaved clean and a wound with pre-determined size was created thereon. Then, the wound site was injected intracutaneously with Pseudomonas aeruginosa strain 1034 ([…], 2×10^5 CFU/ml). After the bacterial infection, the peptide and antibiotic, each prepared at a concentration of 0.1 mg/ml and 0.2 mg/ml, respectively, were intracutaneously injected, and the observation was made everyday. On each day, the skin tissues were sampled and smeared on an NB solid medium. The smeared medium was incubated in an incubator for 18 hours, and the number of grown colonies was counted and expressed in %.

Row | Substance | binding to DNA (plasmid DNA (pRSETB)) | NPN fluorescence (effect on outer membrane) [1] | Minimal inhibitory concentration (S. aureus) [µM] | Minimal inhibitory concentration (L. monocytogenes) [µM] | viability at 24 h, 6.25 µM [2] [%] | viability at 24 h, 12.5 µM [2] [%] | viability at 24 h, 25 µM [2] [%] | viability at 24 h, 50 µM [2] [%] | viability at 24 h, 100 µM [2] [%] | viability at 24 h, 200 µM [2] [%] | wound healing ([3]; 0.1 mg/ml and 0.2 mg/ml, observed everyday) | number of colonies from skin tissues ([3]; Day 5, 0.1 mg/ml treatment condition) [%] | number of colonies from skin tissues ([3]; Day 5, 0.2 mg/ml treatment condition) [%]
1 | GILGKLWEGVKSIF-NH2 [Hp1404] | did not bind to any DNA | increases in treatment concentration-dependent manner | 3.13 | 3.13 | 100 | 100 | 100 | 30.5 | 0.11 | 0 | – | – | –
2 | ILKKLLKKVKKI-NH2 [Hp1404-T1e] | bind to DNA | – | 3.13 | >25 | 100 | 100 | 100 | 100 | 100 | 100 | wound healing effect in peptide concentration-dependent manner | 40 | 20
3 | ILKKLLKKVKSI-NH2 [Hp1404-T1d] | bind to DNA | – | 6.25 | >25 | 100 | 53.9 | 38.9 | 33.1 | 34.6 | – | – | – | –

Source: patent publication US11117931B2, “Antimicrobial peptide derived from Hp1404 peptide and uses thereof” (priority 2017, dated 2021)
